Source: US8969389B2, “Substituted 6-methylnicotinamides as mGluR5 positive allosteric modulators” (Vanderbilt University, priority 2010, dated 2015)

Target: T1, human mGluR5 (Homo sapiens, UniProt P41594)
T1 construct: expressed in transfected cells; host or cells: HEK cells, H10H cell line
Test: Potentiation of glutamate response in HEK cells transfected with human mGluR5 (H10H cell line), Ca2+ fluorescence, FDSS
Assay type: cell-based
Conditions: read-out: hmGluR5 EC50 (H10H cell line)
Experimental: Human embryonic kidney (HEK) cells transfected with rat mGluR5 were plated in clear bottom assay plates for assay in a Functional Drug Screening System (FDSS). In the alternative assay, HEK cells transfected with human mGluR5 (H10H cell line) were plated for assay in the FDSS. […] The cells were loaded with a Ca^2+-sensitive fluorescent dye (e.g., Fluo-4), and the plates were washed and placed in the FDSS instrument. After establishment of a fluorescence baseline for twelve seconds, the compounds of the present invention were added to the cells, and the response in cells was measured. Five minutes later, an mGluR5 agonist (e.g., glutamate, 3,5-dihydroxyphenylglycine, or quisqualate) was added to the cells, and the response of the cells was measured. Potentiation of the agonist response of mGluR5 by the compounds in the present invention was observed as an increase in response to non-maximal concentrations of agonist (here, glutamate) in the presence of compound compared to the response to agonist in the absence of compound.
The above described assay operated in two modes. In the first mode, a range of concentrations of the present compounds were added to cells, followed by a single fixed concentration of agonist. If a compound acted as a potentiator, an EC50 value for potentiation and a maximum extent of potentiation by the compound at this concentration of agonist was determined by non-linear curve fitting. In the second mode, several fixed concentrations of the present compounds were added to various wells on a plate, followed by a range of concentrations of agonist for each concentration of present compound; the EC50 values for the agonist at each concentration of compound were determined by non-linear curve fitting. A decrease in the EC50 value of the agonist with increasing concentrations of the present compounds (a leftward shift of the agonist concentration-response curve) is an indication of the degree of mGluR5 potentiation at a given concentration of the present compound. An increase in the EC50 value of the agonist with increasing concentrations of the present compounds (a rightward shift of the agonist concentration-response curve) is an indication of the degree of mGluR5 antagonism at a given concentration of the present compound. The second mode also indicates whether the present compounds also affect the maximum response to mGluR5 to agonists.

T1 sequence (P41594 21-1212): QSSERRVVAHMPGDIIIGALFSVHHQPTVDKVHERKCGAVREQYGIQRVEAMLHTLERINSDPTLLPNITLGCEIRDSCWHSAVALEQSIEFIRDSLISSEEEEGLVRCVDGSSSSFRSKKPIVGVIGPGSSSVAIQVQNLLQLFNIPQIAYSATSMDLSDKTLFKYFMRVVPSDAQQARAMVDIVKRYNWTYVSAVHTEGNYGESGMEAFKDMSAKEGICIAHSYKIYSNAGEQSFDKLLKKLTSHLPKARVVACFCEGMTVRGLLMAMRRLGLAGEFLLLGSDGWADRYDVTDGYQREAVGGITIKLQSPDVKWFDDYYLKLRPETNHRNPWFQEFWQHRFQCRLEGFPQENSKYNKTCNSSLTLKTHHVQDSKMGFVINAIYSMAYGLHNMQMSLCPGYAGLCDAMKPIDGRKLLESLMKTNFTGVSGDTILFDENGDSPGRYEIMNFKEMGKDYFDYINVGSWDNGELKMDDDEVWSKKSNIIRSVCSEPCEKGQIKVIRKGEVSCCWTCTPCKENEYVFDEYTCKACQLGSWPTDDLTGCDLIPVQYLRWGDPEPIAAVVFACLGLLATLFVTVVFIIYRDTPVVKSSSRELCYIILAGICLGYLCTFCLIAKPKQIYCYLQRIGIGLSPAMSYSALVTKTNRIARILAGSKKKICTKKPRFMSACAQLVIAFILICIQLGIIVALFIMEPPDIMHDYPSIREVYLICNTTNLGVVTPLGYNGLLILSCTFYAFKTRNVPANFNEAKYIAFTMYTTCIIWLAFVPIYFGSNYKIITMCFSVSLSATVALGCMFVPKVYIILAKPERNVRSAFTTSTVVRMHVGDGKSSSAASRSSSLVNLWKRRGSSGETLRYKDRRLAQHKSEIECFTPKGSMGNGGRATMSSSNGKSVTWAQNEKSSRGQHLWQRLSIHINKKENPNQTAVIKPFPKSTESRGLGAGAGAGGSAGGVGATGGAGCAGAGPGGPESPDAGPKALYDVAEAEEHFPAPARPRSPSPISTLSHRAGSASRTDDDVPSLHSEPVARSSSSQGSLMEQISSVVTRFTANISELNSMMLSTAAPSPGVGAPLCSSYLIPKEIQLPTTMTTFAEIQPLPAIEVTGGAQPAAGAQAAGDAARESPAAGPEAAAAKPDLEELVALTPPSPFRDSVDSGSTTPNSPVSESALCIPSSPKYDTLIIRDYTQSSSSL

Compound	EC50
O=C(NC1CC(O)(C(F)(F)F)C1)c1ccc(COc2cccc(F)c2)nc1 (stereo not shown) [drawing 172]	> 10 µM
CC(NC(=O)c1ccc(COc2cccc(F)c2)nc1)c1nccs1 (stereo not shown)	> 10 µM
CC1(O)CC(NC(=O)c2ccc(COc3cccc(F)c3)nc2)C1 (stereo not shown)	> 10 µM
CC(NC(=O)c1ccc(COc2cccc(F)c2)nc1)C(C)(C)O (stereo not shown)	> 10 µM
O=C(NC(c1ccccn1)C(F)(F)F)c1ccc(COc2cccc(F)c2)nc1 (stereo not shown)	> 10 µM
CC1(CCNC(=O)c2ccc(COc3cccc(F)c3)nc2)COC1	> 10 µM

Now from value to molecule:

EC50	Compound
> 10 µM	Cc1cc(OCc2ccc(C(=O)N[C@H](C)C3CCCCC3)cn2)ccn1
3.2 µM	CC(NC(=O)c1ccc(COc2cccc(F)c2)nc1)C(F)(F)F (stereo not shown)
1.5 µM	C[C@@H](NC(=O)c1ccc(COc2ccnc(Cl)c2)nc1)C1CCCCC1
1.9 µM	CC(NC(=O)c1ccc(COc2cccc(F)c2)nc1)C1CCCCO1 (stereo not shown)
